Test results as given in the supplement of paper PMC8671470.
± gives the standard deviation of the averaged measurements.

Assays:
Conditions in all cases: 72 h
KU-812 [1] = test: cell viability (% survival relative to DMSO control, bortezomib = 0%); higher = less cytotoxic
How it was run: (§1)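 After 72 h at 37 °C with 5% CO2, cell viability in 384-well plates was measured by CellTiter-Glo luminescence. The plates held compounds pre-printed at 1, 10, 100, 1000 or 10000 nM in duplicate, and cells from 10 AML and 5 CML lines seeded at densities titrated to linear growth. Percent survival is the duplicate mean, normalised to vehicle as 100% and a 10 µM positive control as 0%.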

LAMA-84 [2] = test: as above
How it was run: as §1

NOMO-1 [3] = test: as above
How it was run: as §1

BV-173 [4] = test: as above
How it was run: as §1

MV4-11 [5] = test: as above
How it was run: as §1

K-562 [6] = test: as above
How it was run: as §1

KG-1 [7] = test: as above
How it was run: as §1

ML-2 [8] = test: as above
How it was run: as §1

KCL-22 [9] = test: as above
How it was run: as §1

THP-1 [10] = test: as above
How it was run: as §1

HL-60 [11] = test: as above
How it was run: as §1

MOLM-13 [12] = test: as above
How it was run: as §1

HL-60 [13] = test: cell viability (% survival relative to DMSO control); higher = less cytotoxic
How it was run: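 For each screen, HL-60 cells in RPMI 1640 with 10% FBS carried either DMSO or 100 nM of one of three metabolic inhibitors while the full library was applied at five tenfold concentrations, 1–10,000 nM, in duplicate. Plates were 384-well and were kept 72 h at 37 °C, 5% CO2. Viability, measured by CellTiter-Glo, was normalised to wells with DMSO and with 10 μM proteasome inhibitor. Where area under the curve appears, it was fitted by four-parameter log-logistic models in drc and PharmacoGx.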

HEL = test system: HEL
How it was run: (§2)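 The IC50 was derived from log-logistic dose–response fitting. Each of fifteen myeloid leukaemia cell lines, seeded in RPMI 1640 within its linear growth range, was exposed in 384-well plates to five tenfold doses (1 to 10,000 nM) in duplicate for 72 h at 37 °C and 5% CO2. Luminescent ATP viability readings were normalised to vehicle and to a positive control at 10 µM before four-parameter curve fitting.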

KU-812 [14] = test system: KU-812
How it was run: as §2

SHI-1 = test system: SHI-1
How it was run: as §2

LAMA-84 [15] = test system: LAMA-84
How it was run: as §2

NOMO-1 [16] = test system: NOMO-1
How it was run: as §2

Mono-Mac-6 = test system: Mono-Mac-6
How it was run: as §2

BV-173 [17] = test system: BV-173
How it was run: as §2

MV4-11 [18] = test system: MV4-11
How it was run: as §2

K-562 [19] = test system: K-562
How it was run: as §2

KG-1 [20] = test system: KG-1
How it was run: as §2

ML-2 [21] = test system: ML-2
How it was run: as §2

KCL-22 [22] = test system: KCL-22
How it was run: as §2

THP-1 [23] = test system: THP-1
How it was run: as §2

HL-60 [24] = test system: HL-60
How it was run: as §2

MOLM-13 [25] = test system: MOLM-13
How it was run: as §2

COC(=O)[C@]12CCC(C)(C)C[C@H]1[C@H]1C(=O)C=C3[C@@]4(C)C=C(C#N)C(=O)C(C)(C)[C@@H]4CC[C@@]3(C)[C@]1(C)CC2 [Bardoxolone methyl]
cell viability [%]
Conditions | 1 nM | 10 nM | 100 nM | 1000 nM | 10000 nM
BV-173 [4] | 89.7 | 102 | 116 | 61 | 5.94
HL-60 [11] | 114 | 91.8 | 112 | 93.6 | 94.2
K-562 [6] | 106 | 97.5 | 114 | 98.8 | 86.9
KCL-22 [9] | 100 | 107 | 112 | 56.2 | 0.0358
KG-1 [7] | 96.6 | 101 | 117 | 53.5 | 1.37
KU-812 [1] | 84.9 | 104 | 113 | 91.3 | 59.2
LAMA-84 [2] | 98.9 | 96.1 | 107 | 106 | 86
ML-2 [8] | 91.7 | 103 | 113 | 73.1 | -0.425
MOLM-13 [12] | 107 | 81.7 | 118 | 91.9 | 87.5
MV4-11 [5] | 113 | 111 | 112 | 94.3 | 96.9
NOMO-1 [3] | 99.4 | 99.3 | 115 | 101 | 80.8
THP-1 [10] | 95.2 | 104 | 108 | 81.6 | 56.3

cell viability [%], HL-60 [13]
Conditions | 0.001 µM | 0.01 µM | 0.1 µM | 1 µM | 10 µM
co-treatment: AZD3965 100 nM | 101 ± 1.8 | 98 ± 5 | 110 ± 4 | 90.8 ± 16 | 32.6 ± 44
co-treatment: DMSO vehicle | 102.3 ± 0.12 | 97.6 ± 2.4 | 101 ± 4.3 | 97.8 ± 1.5 | 107 ± 1.7
co-treatment: GSK2194069 100 nM | 100 ± 3.3 | 92.7 ± 7.7 | 104 ± 3.8 | 88.8 ± 13 | 54.3 ± 56
co-treatment: pictilisib 100 nM | 98.9 ± 1.8 | 78.7 ± 5.8 | 73.5 ± 3.1 | 78.4 ± 4.4 | 0.653 ± 0.12

Conditions | IC50 (cell viability) [µM]
BV-173 [17] | 1.22
HEL | 2.24
HL-60 [24] | > 10
K-562 [19] | > 10
KCL-22 [22] | 1.14
KG-1 [20] | 1.09
KU-812 [14] | 9.5
LAMA-84 [15] | > 10
ML-2 [21] | 1.64
MOLM-13 [25] | > 10
MV4-11 [18] | > 10
Mono-Mac-6 | 0.79
NOMO-1 [16] | > 10
SHI-1 | > 10
THP-1 [23] | 7.05

O=c1oc2c(O)c(O)cc3c(=O)oc4c(O)c(O)cc1c4c23 [Benzoaric Acid]
cell viability [%]
Conditions | 1 nM | 10 nM | 100 nM | 1000 nM | 10000 nM
BV-173 [4] | 92.9 | 101 | 92.8 | 97.9 | 99.1
HL-60 [11] | 94.6 | 106 | 90.7 | 92 | 102
K-562 [6] | 111 | 93.6 | 94.9 | 87.7 | 90.1
KCL-22 [9] | 100 | 111 | 99 | 97.8 | 124
KG-1 [7] | 103 | 107 | 96.6 | 90.4 | 120
KU-812 [1] | 98.4 | 97 | 95.1 | 92.4 | 110
LAMA-84 [2] | 101 | 95.9 | 98.9 | 94.6 | 105
ML-2 [8] | 94.7 | 101 | 95.9 | 95.1 | 108
MOLM-13 [12] | 92.9 | 99.6 | 96 | 92.9 | 110
MV4-11 [5] | 107 | 90.5 | 98.8 | 94.2 | 97.2
NOMO-1 [3] | 102 | 104 | 104 | 99.9 | 102
THP-1 [10] | 102 | 97.3 | 94.3 | 99.4 | 100

cell viability [%], HL-60 [13]
Conditions | 0.001 µM | 0.01 µM | 0.1 µM | 1 µM | 10 µM
co-treatment: AZD3965 100 nM | 98.61 ± 0.51 | 96.4 ± 5.9 | 101 ± 5.7 | 99.21 ± 0.23 | 99.13 ± 0.98
co-treatment: DMSO vehicle | 102.3 ± 0.26 | 100.2 ± 0.36 | 99.9 ± 1.1 | 102 ± 4.1 | 100 ± 7.2
co-treatment: GSK2194069 100 nM | 101 ± 0.64 | 97.6 ± 3.1 | 95.1 ± 1.7 | 94.3 ± 0.58 | 100 ± 3.9
co-treatment: pictilisib 100 nM | 106 ± 9.2 | 104 ± 17 | 101.4 ± 0.41 | 99.2 ± 1.9 | 96.3 ± 2.1

Conditions | IC50 (cell viability) [µM]
BV-173 [17] | > 10
HEL | > 10
HL-60 [24] | > 10
K-562 [19] | > 10
KCL-22 [22] | > 10
KG-1 [20] | > 10
KU-812 [14] | > 10
LAMA-84 [15] | > 10
ML-2 [21] | > 10
MOLM-13 [25] | > 10
MV4-11 [18] | > 10
Mono-Mac-6 | > 10
NOMO-1 [16] | > 10
SHI-1 | > 10
THP-1 [23] | > 10

Cc1c(-c2ccc(-c3ccccc3F)cc2)nc2ccc(F)cc2c1C(=O)O [Brequinar]
cell viability [%]
Conditions | 1 nM | 10 nM | 100 nM | 1000 nM | 10000 nM
BV-173 [4] | 94.7 | 90.3 | 93.3 | 118 | 32.2
HL-60 [11] | 98.5 | 95.8 | 93.2 | 82.7 | 50
K-562 [6] | 98.1 | 89.2 | 92.9 | 103 | 40.4
KCL-22 [9] | 101 | 94.3 | 97.9 | 56.3 | 29.2
KG-1 [7] | 105 | 102 | 95 | 105 | 99
KU-812 [1] | 87.2 | 95.4 | 93.1 | 100 | 80.8
LAMA-84 [2] | 97.3 | 98.2 | 94.2 | 102 | 47.4
ML-2 [8] | 97.2 | 98.2 | 88.9 | 107 | 40.3
MOLM-13 [12] | 80.9 | 84.4 | 85.3 | 95.9 | 9.24
MV4-11 [5] | 106 | 100 | 94.3 | 110 | 36.8
NOMO-1 [3] | 97.3 | 95.3 | 104 | 104 | 89.5
THP-1 [10] | 99.9 | 98.5 | 99 | 102 | 83.3

cell viability [%], HL-60 [13]
Conditions | 0.001 µM | 0.01 µM | 0.1 µM | 1 µM | 10 µM
co-treatment: AZD3965 100 nM | 98.8 ± 10 | 99.3 ± 11 | 78.9 ± 5.1 | 84.4 ± 8.2 | 68.2 ± 15
co-treatment: DMSO vehicle | 99.9 ± 7.8 | 98.8 ± 3.9 | 81.4 ± 4.1 | 87.8 ± 4.5 | 81.3 ± 6.8
co-treatment: GSK2194069 100 nM | 96.8 ± 13 | 103 ± 12 | 84.9 ± 3.2 | 86.9 ± 3.8 | 76.8 ± 7.7
co-treatment: pictilisib 100 nM | 91.4 ± 20 | 101 ± 4 | 86.8 ± 3.4 | 87.3 ± 11 | 93 ± 18

Conditions | IC50 (cell viability) [µM]
BV-173 [17] | 7.19
HEL | 1.48
HL-60 [24] | 6.09
K-562 [19] | 8.59
KCL-22 [22] | 0.94
KG-1 [20] | > 10
KU-812 [14] | > 10
LAMA-84 [15] | 9.69
ML-2 [21] | 8.46
MOLM-13 [25] | 4.34
MV4-11 [18] | 7.76
Mono-Mac-6 | > 10
NOMO-1 [16] | > 10
SHI-1 | > 10
THP-1 [23] | > 10
